Test results published in paper doi:10.1101/2025.06.04.657800v3, “Advancing Ligand Binding Affinity Prediction with Cartesian Tensor-Based Deep Learning” (biorxiv, 2025).

What was measured:
ENPP1 [1] = target: T1, ENPP1 (Homo sapiens, UniProt P22413); experiment: in vitro enzyme activity assay; assay type: biochemical
T1 construct: purified ENPP1 protein for PTS, enzyme assay and SPR
T1 sequence (P22413 1-925): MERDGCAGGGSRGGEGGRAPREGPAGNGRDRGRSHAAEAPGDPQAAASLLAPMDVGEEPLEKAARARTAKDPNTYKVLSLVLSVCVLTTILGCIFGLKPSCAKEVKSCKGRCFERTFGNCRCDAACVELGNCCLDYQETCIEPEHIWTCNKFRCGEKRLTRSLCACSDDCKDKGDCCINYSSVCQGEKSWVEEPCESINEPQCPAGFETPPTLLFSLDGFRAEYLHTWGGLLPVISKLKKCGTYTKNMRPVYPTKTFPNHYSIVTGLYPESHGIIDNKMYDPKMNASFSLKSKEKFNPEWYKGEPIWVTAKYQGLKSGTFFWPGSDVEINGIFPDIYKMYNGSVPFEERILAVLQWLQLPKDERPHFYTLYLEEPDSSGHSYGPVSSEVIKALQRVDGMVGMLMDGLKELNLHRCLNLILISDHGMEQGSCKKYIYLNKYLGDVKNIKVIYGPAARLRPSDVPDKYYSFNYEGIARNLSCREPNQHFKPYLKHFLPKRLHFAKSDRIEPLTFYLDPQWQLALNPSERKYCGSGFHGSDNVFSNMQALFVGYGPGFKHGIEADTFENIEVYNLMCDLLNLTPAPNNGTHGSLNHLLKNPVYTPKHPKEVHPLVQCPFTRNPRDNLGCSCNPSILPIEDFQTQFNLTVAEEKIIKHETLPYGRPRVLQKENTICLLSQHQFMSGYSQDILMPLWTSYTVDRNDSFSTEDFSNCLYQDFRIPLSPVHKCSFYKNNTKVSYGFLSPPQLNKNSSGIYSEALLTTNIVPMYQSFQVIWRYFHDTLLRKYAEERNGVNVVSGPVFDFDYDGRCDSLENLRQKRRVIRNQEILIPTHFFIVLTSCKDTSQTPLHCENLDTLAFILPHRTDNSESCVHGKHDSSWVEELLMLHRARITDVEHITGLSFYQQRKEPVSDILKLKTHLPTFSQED

ENPP1 [2] = target: T1, ENPP1; experiment: surface plasmon resonance; assay type: binding
ALDH1B1 [3] = target: T2, ALDH1B1 (Homo sapiens, UniProt P30837); experiment: surface plasmon resonance; assay type: binding
T2 construct: purified ALDH1B1 protein, wild type and alanine mutants
T2 sequence (P30837 18-517): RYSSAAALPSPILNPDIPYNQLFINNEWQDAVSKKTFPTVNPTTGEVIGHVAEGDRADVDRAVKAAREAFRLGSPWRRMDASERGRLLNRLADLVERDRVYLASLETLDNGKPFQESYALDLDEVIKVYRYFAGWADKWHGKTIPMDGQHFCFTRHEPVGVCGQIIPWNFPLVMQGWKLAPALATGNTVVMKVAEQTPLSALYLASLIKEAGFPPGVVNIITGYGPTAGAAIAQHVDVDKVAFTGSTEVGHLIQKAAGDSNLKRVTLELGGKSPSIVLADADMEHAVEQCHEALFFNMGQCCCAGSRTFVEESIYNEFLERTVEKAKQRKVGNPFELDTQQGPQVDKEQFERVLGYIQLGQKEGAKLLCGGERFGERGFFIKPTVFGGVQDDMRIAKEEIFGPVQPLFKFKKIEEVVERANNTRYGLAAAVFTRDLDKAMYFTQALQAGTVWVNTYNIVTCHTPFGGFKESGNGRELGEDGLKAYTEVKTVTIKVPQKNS

ALDH1B1 [4] = target: T2, ALDH1B1; experiment: in vitro enzyme activity assay; assay type: biochemical

IC50 (ENPP1 [1]) [µM] | Kd (ENPP1 [2]) [µM] | SMILES | Kd (ALDH1B1 [3]) [µM] | IC50 (ALDH1B1 [4]) [µM]
2.28 | 1.03 | COc1cccc(F)c1-c1nc(C(=O)Nc2ccccc2N2CCC(NS(N)(=O)=O)CC2)cn2ccnc12 [A2] |  | 
 |  | Fc1cc(F)c2c(c1)[C@@H]1C=CC[C@@H]1[C@H](c1cccnc1)N2 [B1] | 0.0152 | 0.02
 |  | Fc1cc(F)c2c(c1)[C@H]1C=CC[C@H]1[C@@H](c1cccnc1)N2 [B2] | 1.21 | 5.57
